Values after ≈ are worked out from the molar mass of the structure shown.
Tests used:
[1] = system: Mycobacterium tuberculosis; assay: Antibacterial activity against rifampicin-resistant Mycobacterium tuberculosis H37Rv by microplate alamar blue assay; assay type: functional
[2] = system: Mycobacterium tuberculosis; assay: Antibacterial activity against isoniazid-resistant Mycobacterium tuberculosis H37Rv by microplate alamar blue assay; assay type: functional

SMILES	MIC [1] [mg/L]	MIC [2] [mg/L]
CCCCCC[C@H](CN1CCC(COc2cccc(C(=O)c3ccc(Cl)cc3)c2)CC1)OC(N)=O	2.91 (≈ 5.81 µM)	2.91 (≈ 5.81 µM)
CCCCCC[C@H](CN1CCC(COc2cccc(/C(=N\OC)c3ccc(Cl)cc3)c2)CC1)OC(N)=O	1.51 (≈ 2.85 µM)	1.52 (≈ 2.87 µM)
NNC(=O)c1ccncc1 [ISONIAZID]	0.05 (≈ 0.365 µM)	> 8
CO[C@H]1/C=C/O[C@@]2(C)Oc3c(C)c(O)c4c(O)c(c(/C=N/N5CCN(C)CC5)c(O)c4c3C2=O)NC(=O)/C(C)=C\C=C\[C@H](C)[C@H](O)[C@@H](C)[C@@H](O)[C@@H](C)[C@H](OC(C)=O)[C@@H]1C [RIFAMPIN]	> 4	0.03 (≈ 0.0365 µM)

From ChEMBL document CHEMBL2046305, “Discovery of selective menaquinone biosynthesis inhibitors against Mycobacterium tuberculosis” (J Med Chem, 2012)
